From US6656907B1, “Method of treating gastric ulcer by administration of epidermal growth factor” (University Technologies International Inc., priority 1995, dated 2003)

System: intestinal brush border membrane nutrient absorption
Assay: Nutrient uptake into brush border membrane vesicles after jejunal loop treatment
Assay type: in vivo, New Zealand White rabbits
Method: Subsequent experiments examined the effects of EGF and an inhibitor of the EGF receptor (tyrphostin 51) on intestinal brush border membrane nutrient absorption. Tyrphostin 51is a specific inhibitor of tyrosine kinase, which is a critical element of the EGF intracellular signalling cascade. Studies were performed in New Zealand White rabbits (700-1000 g; approximately 8 weeks of age). Two 10 cm blind jejunal loops separated by a 1 cm segment were tied off starting 5 cm distal to the ligament of Treitz. In separate experiments either EGF (60 ng/ml), EGF+tyrphostin (10 μM), or tyrphostin (10 μM) alone in 1.5 ml of saline vehicle was administered to one of the loops. The other loop received vehicle alone and served as a paired control. After one hour, the loops were removed and the mucosa scraped for preparation of brush border membrane vesicles. Nutrient (D-glucose and L-proline) uptake into brush border membrane vesicles was determined by established techniques. Luminal EGF stimulated a significant increase (p<0.001) in brush border membrane glucose (EGF 16.1±1.0 vs CONTROL 11.5±0.9 nmol/min/mg protein; n=5) and proline (EGF 3.8±0.5 vs CONTROL 2.6±0.3 nmol/min/mg protein; n=5) transport compared to controls. […] Subsequently, a further series of experiments examined the effect of tyrphostin alone on brush border glucose transport. […]

N#CC(C#N)=C(N)/C(C#N)=C/c1cc(O)c(O)c(O)c1 [TYR, tyrphostin 51, reference compound]
effect on EGF-induced increase in glucose uptake (concurrent tyrphostin 10 μM with EGF 60 ng/ml): completely blocked | brush border membrane glucose uptake (tyrphostin 10 μM alone, one hour, n=4, control 10.7±1.0): 8.0±0.8 nmol/min/mg protein
